Assays:
Assay in all cases: radiometric filter-binding kinase assay, Kinase HotSpot
Conditions in all cases: compound 0.5 µM; ATP 10 µM
[1] = molecular target: MUSK (human) (UniProt O15146)
[2] = molecular target: TYK2 JH1 catalytic (human) (UniProt P29597)
[3] = molecular target: PKN1 (human) (UniProt Q16512)
[4] = molecular target: STK39 (human) (UniProt Q9UEW8)
[5] = molecular target: BRSK1 (human) (UniProt Q8TDC3)
[6] = molecular target: RPS6KA6 KD1 KD2 (human) (UniProt Q9UK32)
[7] = molecular target: MARK2 (human) (UniProt Q7KZI7)
[8] = molecular target: MAP2K1 (human) (UniProt Q02750)
[9] = molecular target: DAPK3 (human) (UniProt O43293)
[10] = molecular target: EPHB4 (human) (UniProt P54760)
[11] = molecular target: RPS6KA1 KD1 KD2 (human) (UniProt Q15418)
[12] = molecular target: PRKD3 (human) (UniProt O94806)
[13] = molecular target: ZAP70 (human) (UniProt P43403)
[14] = molecular target: CSNK1D (human) (UniProt P48730)
[15] = molecular target: FGFR1 (human) (UniProt P11362)
[16] = molecular target: STK4 (human) (UniProt Q13043)
[17] = tested on: SGK1 (human), O00141 [S422D]
[18] = molecular target: BLK (human) (UniProt P51451)
[19] = molecular target: MAPK11 (human) (UniProt Q15759)
[20] = molecular target: MAPK9 (human) (UniProt P45984)
[21] = molecular target: MYLK (human) (UniProt Q15746)
[22] = molecular target: TGFBR1 (human) (UniProt P36897)
[23] = molecular target: CSNK1G3 (human) (UniProt Q9Y6M4)
[24] = molecular target: GRK5 (human) (UniProt P34947)
[25] = molecular target: WEE1 (human) (UniProt P30291)
[26] = molecular target: MARK4 (human) (UniProt Q96L34)
[27] = molecular target: SGK3 (human) (UniProt Q96BR1)
[28] = molecular target: RPS6KB1 (human) (UniProt P23443)
[29] = molecular target: NTRK1 (human) (UniProt P04629)
[30] = molecular target: SLK (human) (UniProt Q9H2G2)
[31] = molecular target: PRKCZ (human) (UniProt Q05513)
[32] = molecular target: AURKA (human) (UniProt O14965)
[33] = molecular target: INSR (human) (UniProt P06213)
[34] = molecular target: CAMK2A (human) (UniProt Q9UQM7)
[35] = molecular target: DCLK2 (human) (UniProt Q8N568)
[36] = molecular target: CDK2 CCNA2 (human) (UniProt P24941+P20248)
[37] = molecular target: TGFBR2 (human) (UniProt P37173)
[38] = molecular target: WNK3 (human) (UniProt Q9BYP7)
[39] = molecular target: CDK1 CCNB1 (human) (UniProt P06493+P14635)
[40] = molecular target: CLK1 (human) (UniProt P49759)
[41] = molecular target: PAK2 (human) (UniProt Q13177)
[42] = molecular target: FRK (human) (UniProt P42685)

Chain of SGK3 (human) (Q96BR1 whole entry, looked up): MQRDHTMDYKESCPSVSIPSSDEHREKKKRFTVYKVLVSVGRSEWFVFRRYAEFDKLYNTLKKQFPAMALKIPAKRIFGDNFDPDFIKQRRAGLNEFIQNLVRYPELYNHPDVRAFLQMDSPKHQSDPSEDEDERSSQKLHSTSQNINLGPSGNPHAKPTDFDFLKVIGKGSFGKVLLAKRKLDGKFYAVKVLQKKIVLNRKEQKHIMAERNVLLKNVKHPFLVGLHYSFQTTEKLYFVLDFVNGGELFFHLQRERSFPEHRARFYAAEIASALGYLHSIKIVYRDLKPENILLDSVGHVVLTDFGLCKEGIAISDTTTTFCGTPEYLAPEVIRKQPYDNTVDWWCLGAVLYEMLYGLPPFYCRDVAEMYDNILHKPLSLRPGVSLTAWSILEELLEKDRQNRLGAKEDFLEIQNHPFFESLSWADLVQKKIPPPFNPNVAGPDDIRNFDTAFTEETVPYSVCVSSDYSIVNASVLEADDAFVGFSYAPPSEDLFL
Chain of MAP2K1 (human) (Q02750 whole entry, looked up): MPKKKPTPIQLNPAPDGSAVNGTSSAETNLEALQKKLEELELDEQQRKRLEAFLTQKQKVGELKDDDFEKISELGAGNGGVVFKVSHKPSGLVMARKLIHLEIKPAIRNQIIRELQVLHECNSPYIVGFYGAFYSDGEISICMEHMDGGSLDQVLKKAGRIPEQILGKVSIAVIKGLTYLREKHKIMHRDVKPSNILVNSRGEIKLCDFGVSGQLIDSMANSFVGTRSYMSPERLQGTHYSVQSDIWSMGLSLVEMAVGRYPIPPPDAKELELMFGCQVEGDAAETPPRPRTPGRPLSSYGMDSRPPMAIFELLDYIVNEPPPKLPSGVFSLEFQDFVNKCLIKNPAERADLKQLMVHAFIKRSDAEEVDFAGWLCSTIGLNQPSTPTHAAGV
Chain of PKN1 (human) (Q16512 whole entry, looked up): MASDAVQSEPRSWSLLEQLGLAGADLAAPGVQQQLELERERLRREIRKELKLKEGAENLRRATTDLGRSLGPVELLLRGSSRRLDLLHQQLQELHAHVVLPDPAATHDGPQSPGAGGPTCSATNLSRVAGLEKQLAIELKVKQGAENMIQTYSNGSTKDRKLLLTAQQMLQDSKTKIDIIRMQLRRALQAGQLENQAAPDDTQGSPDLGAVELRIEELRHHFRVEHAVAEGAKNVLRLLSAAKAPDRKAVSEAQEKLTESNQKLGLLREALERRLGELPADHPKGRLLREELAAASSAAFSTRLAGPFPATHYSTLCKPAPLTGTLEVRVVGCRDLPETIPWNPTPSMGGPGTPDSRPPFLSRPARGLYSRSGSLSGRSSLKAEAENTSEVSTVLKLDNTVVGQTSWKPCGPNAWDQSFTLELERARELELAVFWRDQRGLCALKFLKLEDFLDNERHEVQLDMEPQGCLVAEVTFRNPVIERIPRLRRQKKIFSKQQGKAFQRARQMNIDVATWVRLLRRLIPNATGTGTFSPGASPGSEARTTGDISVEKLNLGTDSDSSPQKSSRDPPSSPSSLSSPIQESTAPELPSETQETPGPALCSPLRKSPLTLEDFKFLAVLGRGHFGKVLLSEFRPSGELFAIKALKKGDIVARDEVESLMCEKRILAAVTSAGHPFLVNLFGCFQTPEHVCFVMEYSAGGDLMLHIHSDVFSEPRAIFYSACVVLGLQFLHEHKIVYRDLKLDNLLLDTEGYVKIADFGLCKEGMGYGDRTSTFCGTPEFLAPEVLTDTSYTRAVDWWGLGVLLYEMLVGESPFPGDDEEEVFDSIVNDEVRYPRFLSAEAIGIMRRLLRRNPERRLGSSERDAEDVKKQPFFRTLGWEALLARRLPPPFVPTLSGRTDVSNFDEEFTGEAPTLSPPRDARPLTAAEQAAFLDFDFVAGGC
Chain of BLK (human) (P51451 whole entry, looked up): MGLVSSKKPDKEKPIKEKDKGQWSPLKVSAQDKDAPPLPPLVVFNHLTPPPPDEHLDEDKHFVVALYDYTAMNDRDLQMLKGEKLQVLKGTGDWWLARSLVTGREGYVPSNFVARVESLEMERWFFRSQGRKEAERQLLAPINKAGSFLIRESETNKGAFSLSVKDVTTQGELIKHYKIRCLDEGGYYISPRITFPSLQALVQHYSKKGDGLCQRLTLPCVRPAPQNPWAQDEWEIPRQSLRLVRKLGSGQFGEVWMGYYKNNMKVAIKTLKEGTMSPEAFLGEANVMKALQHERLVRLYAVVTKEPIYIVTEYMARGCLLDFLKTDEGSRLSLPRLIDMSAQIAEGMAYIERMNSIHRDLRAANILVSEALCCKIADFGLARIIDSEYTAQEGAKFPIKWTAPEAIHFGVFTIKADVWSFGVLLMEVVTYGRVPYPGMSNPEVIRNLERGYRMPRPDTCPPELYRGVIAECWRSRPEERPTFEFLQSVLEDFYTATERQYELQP
Chain of SGK1 (human), O00141 [S422D] (O00141 whole entry S422D, looked up): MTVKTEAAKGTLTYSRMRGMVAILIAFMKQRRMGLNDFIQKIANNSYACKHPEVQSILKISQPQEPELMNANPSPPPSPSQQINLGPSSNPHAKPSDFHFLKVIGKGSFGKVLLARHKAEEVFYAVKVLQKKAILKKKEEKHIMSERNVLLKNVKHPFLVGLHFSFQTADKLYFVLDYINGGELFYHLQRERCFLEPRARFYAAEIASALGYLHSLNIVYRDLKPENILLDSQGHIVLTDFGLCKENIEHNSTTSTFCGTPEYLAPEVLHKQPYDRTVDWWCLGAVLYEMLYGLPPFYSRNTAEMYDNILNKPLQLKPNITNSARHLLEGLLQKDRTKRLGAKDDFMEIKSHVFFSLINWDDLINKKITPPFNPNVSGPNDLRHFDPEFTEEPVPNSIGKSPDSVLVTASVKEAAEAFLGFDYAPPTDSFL
Chain of MYLK (human) (Q15746 whole entry, looked up): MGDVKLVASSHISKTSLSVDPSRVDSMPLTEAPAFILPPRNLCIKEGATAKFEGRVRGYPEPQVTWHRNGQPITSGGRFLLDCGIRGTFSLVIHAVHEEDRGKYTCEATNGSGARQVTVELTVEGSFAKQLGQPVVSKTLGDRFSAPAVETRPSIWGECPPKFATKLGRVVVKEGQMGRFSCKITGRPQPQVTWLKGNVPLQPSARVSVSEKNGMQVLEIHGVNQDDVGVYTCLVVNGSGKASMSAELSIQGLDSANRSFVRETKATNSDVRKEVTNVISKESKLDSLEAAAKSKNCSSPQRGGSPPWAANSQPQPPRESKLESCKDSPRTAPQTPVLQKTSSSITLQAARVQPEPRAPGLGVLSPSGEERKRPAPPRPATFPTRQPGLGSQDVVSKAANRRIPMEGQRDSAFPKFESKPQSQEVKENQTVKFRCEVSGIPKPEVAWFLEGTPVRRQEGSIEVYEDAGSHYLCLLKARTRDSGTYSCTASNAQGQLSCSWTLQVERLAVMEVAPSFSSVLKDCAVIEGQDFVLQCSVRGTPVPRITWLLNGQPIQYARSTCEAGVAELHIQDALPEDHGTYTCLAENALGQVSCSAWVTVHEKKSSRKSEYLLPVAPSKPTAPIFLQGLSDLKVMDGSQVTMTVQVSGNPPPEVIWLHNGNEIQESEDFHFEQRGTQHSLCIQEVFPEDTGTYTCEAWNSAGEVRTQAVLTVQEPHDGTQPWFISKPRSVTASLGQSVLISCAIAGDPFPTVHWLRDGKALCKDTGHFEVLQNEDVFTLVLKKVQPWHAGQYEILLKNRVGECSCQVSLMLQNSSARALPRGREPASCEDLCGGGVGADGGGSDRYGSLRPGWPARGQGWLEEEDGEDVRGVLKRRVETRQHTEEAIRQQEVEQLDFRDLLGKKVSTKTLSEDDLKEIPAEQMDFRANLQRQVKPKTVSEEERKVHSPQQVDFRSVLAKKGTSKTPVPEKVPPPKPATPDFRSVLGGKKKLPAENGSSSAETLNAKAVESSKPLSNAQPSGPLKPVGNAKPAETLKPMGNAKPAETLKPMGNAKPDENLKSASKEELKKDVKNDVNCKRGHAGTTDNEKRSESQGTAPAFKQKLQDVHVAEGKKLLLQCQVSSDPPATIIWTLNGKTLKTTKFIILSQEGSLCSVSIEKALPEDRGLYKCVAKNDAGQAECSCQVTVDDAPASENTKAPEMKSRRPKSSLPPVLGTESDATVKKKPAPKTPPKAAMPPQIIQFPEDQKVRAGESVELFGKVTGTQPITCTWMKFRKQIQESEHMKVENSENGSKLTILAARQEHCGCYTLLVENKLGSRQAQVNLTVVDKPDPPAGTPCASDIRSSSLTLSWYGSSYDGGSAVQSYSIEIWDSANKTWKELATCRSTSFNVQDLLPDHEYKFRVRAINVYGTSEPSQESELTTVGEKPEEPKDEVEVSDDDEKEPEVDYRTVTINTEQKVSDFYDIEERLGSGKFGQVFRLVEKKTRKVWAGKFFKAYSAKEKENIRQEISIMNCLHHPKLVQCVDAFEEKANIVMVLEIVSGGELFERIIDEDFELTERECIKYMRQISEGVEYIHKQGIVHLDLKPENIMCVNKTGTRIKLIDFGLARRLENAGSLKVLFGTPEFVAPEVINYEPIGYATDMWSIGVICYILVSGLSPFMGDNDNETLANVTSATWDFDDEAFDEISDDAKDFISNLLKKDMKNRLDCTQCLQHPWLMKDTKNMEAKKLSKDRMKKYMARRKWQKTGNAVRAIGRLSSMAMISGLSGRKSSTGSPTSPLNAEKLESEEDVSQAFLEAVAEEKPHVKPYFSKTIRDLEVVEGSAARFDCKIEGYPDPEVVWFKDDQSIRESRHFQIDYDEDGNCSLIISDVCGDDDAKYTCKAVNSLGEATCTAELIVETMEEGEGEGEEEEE
Chain of MAPK11 (human) (Q15759 whole entry, looked up): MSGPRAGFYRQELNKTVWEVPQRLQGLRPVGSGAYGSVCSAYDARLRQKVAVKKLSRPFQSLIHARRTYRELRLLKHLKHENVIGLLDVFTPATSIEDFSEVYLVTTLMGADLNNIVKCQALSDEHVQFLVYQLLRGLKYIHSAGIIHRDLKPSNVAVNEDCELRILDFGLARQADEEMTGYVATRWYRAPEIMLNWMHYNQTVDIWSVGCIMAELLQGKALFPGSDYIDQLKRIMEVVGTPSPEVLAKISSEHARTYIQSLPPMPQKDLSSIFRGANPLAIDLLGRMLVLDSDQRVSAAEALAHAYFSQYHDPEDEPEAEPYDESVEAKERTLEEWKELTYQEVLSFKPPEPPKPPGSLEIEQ

## CCc1nc(-c2ccc(OC)cc2)[nH]c1-c1ccncc1
[1]
  residual activity: 85.9%
[2]
  residual activity: 106%
[3]
  residual activity: 97%
[4]
  residual activity: 94.2%
[5]
  residual activity: 101%
[6]
  residual activity: 111%
[7]
  residual activity: 99.4%
[8]
  residual activity: 97.8%
[9]
  residual activity: 95.8%
[10]
  residual activity: 90.3%
[11]
  residual activity: 106%
[12]
  residual activity: 97.1%
[13]
  residual activity: 101%
[14]
  residual activity: 95.1%
[15]
  residual activity: 88.1%
[16]
  residual activity: 106%
[17]
  residual activity: 104%
[18]
  residual activity: 105%
[19]
  residual activity: 104%
[20]
  residual activity: 101%
[21]
  residual activity: 104%
[22]
  residual activity: 98.2%
[23]
  residual activity: 106%
[24]
  residual activity: 107%
[25]
  residual activity: 89.1%
[26]
  residual activity: 96.4%
[27]
  residual activity: 99.3%
[28]
  residual activity: 98.4%
[29]
  residual activity: 106%
[30]
  residual activity: 99.7%
[31]
  residual activity: 107%
[32]
  residual activity: 93.7%
[33]
  residual activity: 85%
[34]
  residual activity: 105%
[35]
  residual activity: 103%
[36]
  residual activity: 99.5%
[37]
  residual activity: 140%
[38]
  residual activity: 97.3%
[39]
  residual activity: 102%
[40]
  residual activity: 105%
[41]
  residual activity: 90.7%
[42]
  residual activity: 101%

## N#Cc1c(NC(=O)c2cccc3ccccc23)sc2c1CCCC2
[1]
  residual activity: 94.8%
[2]
  residual activity: 100%
[3]
  residual activity: 108%
[4]
  residual activity: 94.6%
[5]
  residual activity: 97%
[6]
  residual activity: 101%
[7]
  residual activity: 105%
[8]
  residual activity: 98.4%
[9]
  residual activity: 110%
[10]
  residual activity: 99.5%
[11]
  residual activity: 86.1%
[12]
  residual activity: 97.7%
[13]
  residual activity: 95%
[14]
  residual activity: 106%
[15]
  residual activity: 105%
[16]
  residual activity: 93.1%
[17]
  residual activity: 108%
[18]
  residual activity: 105%
[19]
  residual activity: 104%
[20]
  residual activity: 33.9%
[21]
  residual activity: 98.7%
[22]
  residual activity: 101%
[23]
  residual activity: 104%
[24]
  residual activity: 98.2%
[25]
  residual activity: 88.9%
[26]
  residual activity: 101%
[27]
  residual activity: 107%
[28]
  residual activity: 105%
[29]
  residual activity: 105%
[30]
  residual activity: 99.2%
[31]
  residual activity: 102%
[32]
  residual activity: 101%
[33]
  residual activity: 98.2%
[34]
  residual activity: 104%
[35]
  residual activity: 96.5%
[36]
  residual activity: 100%
[37]
  residual activity: 104%
[38]
  residual activity: 99.2%
[39]
  residual activity: 111%
[40]
  residual activity: 99.2%
[41]
  residual activity: 103%
[42]
  residual activity: 104%

## CCOc1cc2ncnc(Nc3cccc(Br)c3)c2cc1OCC
[1]
  residual activity: 92.6%
[2]
  residual activity: 107%
[3]
  residual activity: 100%
[4]
  residual activity: 110%
[5]
  residual activity: 86.1%
[6]
  residual activity: 93.3%
[7]
  residual activity: 94.5%
[8]
  residual activity: 96.1%
[9]
  residual activity: 103%
[10]
  residual activity: 43%
[11]
  residual activity: 82.8%
[12]
  residual activity: 95.4%
[13]
  residual activity: 105%
[14]
  residual activity: 103%
[15]
  residual activity: 90.9%
[16]
  residual activity: 98.5%
[17]
  residual activity: 120%
[18]
  residual activity: 74.9%
[19]
  residual activity: 89%
[20]
  residual activity: 98.5%
[21]
  residual activity: 89.4%
[22]
  residual activity: 96.9%
[23]
  residual activity: 98.7%
[24]
  residual activity: 104%
[25]
  residual activity: 97.9%
[26]
  residual activity: 99.2%
[27]
  residual activity: 96.7%
[28]
  residual activity: 95.8%
[29]
  residual activity: 89.6%
[30]
  residual activity: 64.8%
[31]
  residual activity: 97.8%
[32]
  residual activity: 110%
[33]
  residual activity: 98.7%
[34]
  residual activity: 103%
[35]
  residual activity: 99.5%
[36]
  residual activity: 91.9%
[37]
  residual activity: 83.4%
[38]
  residual activity: 96.5%
[39]
  residual activity: 80.8%
[40]
  residual activity: 97.2%
[41]
  residual activity: 105%
[42]
  residual activity: 85.9%

## CCCCc1c(-c2ccc(O)cc2)[nH]c2nccnc12
[1]
  residual activity: 82%
[2]
  residual activity: 43.4%
[3]
  residual activity: 90.3%
[4]
  residual activity: 76.1%
[5]
  residual activity: 89.1%
[6]
  residual activity: 72.7%
[7]
  residual activity: 76.1%
[8]
  residual activity: 94.8%
[9]
  residual activity: 94.9%
[10]
  residual activity: 86%
[11]
  residual activity: 82.6%
[12]
  residual activity: 67.4%
[13]
  residual activity: 94.4%
[14]
  residual activity: 93.7%
[15]
  residual activity: 81.8%
[16]
  residual activity: 78.3%
[17]
  residual activity: 88.1%
[18]
  residual activity: 85%
[19]
  residual activity: 103%
[20]
  residual activity: 90.2%
[21]
  residual activity: 101%
[22]
  residual activity: 100%
[23]
  residual activity: 82.3%
[24]
  residual activity: 104%
[25]
  residual activity: 94.6%
[26]
  residual activity: 84.6%
[27]
  residual activity: 95.3%
[28]
  residual activity: 105%
[29]
  residual activity: 99.6%
[30]
  residual activity: 77.3%
[31]
  residual activity: 97.4%
[32]
  residual activity: 24.5%
[33]
  residual activity: 99.6%
[34]
  residual activity: 97.8%
[35]
  residual activity: 99.7%
[36]
  residual activity: 22.4%
[37]
  residual activity: 55%
[38]
  residual activity: 90.3%
[39]
  residual activity: 45.2%
[40]
  residual activity: 97.9%
[41]
  residual activity: 84.5%
[42]
  residual activity: 87.6%

From the kinase profiling compilation of Christmann-Franck et al. (2016)
